Test systems include 786-0 renal; COLO 205 colon; EKVX NSCLC; HL-60(TB) leukemia; LOX IMVI melanoma; NCI-H522 lung; OVCAR-5 ovarian; SF-295 CNS; SK-MEL-28 melanoma; SK-MEL-5 melanoma.
What all share (assay): NCI anticancer screen, dose series, 48 h

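Assay format: 96-well plates, 48-hour exposure. At the GI50, growth is halved. TGI: total growth inhibition.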

As for `Cc1ccc(/C=C(/C#N)n2nnc3cccc(F)c32)cc1`, the GI50 is 0.384 µM with 786-0 renal; 0.387 µM in the test on COLO 205 colon; 0.863 µM in the test on EKVX NSCLC; 0.295 µM in the test on HL-60(TB) leukemia; 0.409 µM with LOX IMVI melanoma; 0.194 µM in the test with NCI-H522 lung. For the same compound, the GI50 was 0.673 µM in the test with OVCAR-5 ovarian, 0.368 µM with SF-295 CNS, 0.902 µM with SK-MEL-28 melanoma and 0.423 µM in the test on SK-MEL-5 melanoma. Besides, the TGI is 14.1 µM in the test with 786-0 renal; 3.3 µM in the test on COLO 205 colon; 18.7 µM in the test with EKVX NSCLC; 4.42 µM with HL-60(TB) leukemia; 1.81 µM with LOX IMVI melanoma; 14.9 µM in the test on NCI-H522 lung. Moreover, the TGI in the test on OVCAR-5 ovarian stood at 9.12 µM; in the test on SF-295 CNS, 7.39 µM; in the test with SK-MEL-28 melanoma, 18.1 µM; with SK-MEL-5 melanoma it was 4.22 µM.

For `c1ccc(-c2sc(-c3ccccc3)c3c2C(c2ccccc2)c2c(-c4ccccc4)sc(-c4ccccc4)c2C3c2ccccc2)cc1` (stereo not given), the TGI in the test with 786-0 renal, in the test on COLO 205 colon, with EKVX NSCLC, in the test with HL-60(TB) leukemia, in the test on LOX IMVI melanoma and in the test on NCI-H522 lung was greater than 100 µM each time. Also, the TGI in the test on OVCAR-5 ovarian, with SF-295 CNS, in the test on SK-MEL-28 melanoma and in the test on SK-MEL-5 melanoma was greater than 100 µM throughout.

Regarding `CC(C)(Oc1cccc(N2CCC[C@@H](C(=O)N(Cc3ccc(-c4cn[nH]c4)cc3)C3CC3)C2)c1)C(=O)N1CCNCC1`, the GI50 in the test on 786-0 renal was 11.7 µM; with COLO 205 colon, 5.91 µM; with EKVX NSCLC it was 13.7 µM; in the test with HL-60(TB) leukemia, 13.8 µM; in the test with LOX IMVI melanoma, 11.8 µM; in the test with NCI-H522 lung it was 12.3 µM. Moreover, the GI50 was 16.6 µM in the test with OVCAR-5 ovarian, 12.5 µM with SF-295 CNS, 13.1 µM in the test on SK-MEL-28 melanoma and 10.3 µM in the test on SK-MEL-5 melanoma. Moreover, the TGI is 25 µM in the test on 786-0 renal; 20.1 µM with COLO 205 colon; 27.9 µM in the test on EKVX NSCLC; greater than 100 µM with HL-60(TB) leukemia; 25 µM with LOX IMVI melanoma; 26 µM with NCI-H522 lung. The TGI in the test with OVCAR-5 ovarian came out at 32.2 µM; in the test on SF-295 CNS it was 26 µM; with SK-MEL-28 melanoma it was 26.1 µM; in the test on SK-MEL-5 melanoma, 22.1 µM.

With `CCc1nc(N)nc(N)c1-c1ccc(N2CCNCC2)c([N+](=O)[O-])c1`, the TGI in the test on 786-0 renal was greater than 74.3 µM; in the test on COLO 205 colon, 40.5 µM; in the test with EKVX NSCLC, greater than 100 µM; in the test with HL-60(TB) leukemia, greater than 85.2 µM; with LOX IMVI melanoma, greater than 66.1 µM; with NCI-H522 lung it was greater than 100 µM. For the same compound, the TGI was greater than 100 µM in the test on OVCAR-5 ovarian, greater than 100 µM with SF-295 CNS, greater than 100 µM with SK-MEL-28 melanoma and 28.3 µM in the test on SK-MEL-5 melanoma.

For the origin of these results see PubChem BioAssay (NCI).
